Experimental data as given in US8853172B2, “Anti-plant-virus agent” (National University Corporation Hokkaido University, priority 2009, dated 2014).

How the values were obtained:
Assay type in all cases: in vivo
Turnip mosaic virus [1] = assay: Experiment III: therapeutic test, spraying after inoculation of Arabidopsis thaliana with Turnip mosaic virus (inoculation solution C); conditions: Arabidopsis thaliana (Columbia), ten columns inoculated, 20 mM sprayed on days 1, 4, 7 and 10 after inoculation, observed on the 16th day
Description: A nonionic surfactant (polyoxyethylene sorbitan monolaurate) and a spreading agent (Approach BI: manufactured by Kao Corporation) were dissolved in N,N-dimethylformamide. This solution was added to water to obtain an aqueous solution comprising 0.05% of a nonionic surfactant, 0.1% of a spreading agent, and 1% of N,N-dimethylformamide.
(§1) Two expanded leaves per one column of Arabidopsis thaliana (Columbia) were inoculated with the virus via the aforementioned virus inoculation solution C by the carborundum method.
On the 1st day, the 4th day, the 7th day and the 10th day after the date of the virus inoculation, the aforementioned aqueous solution was sprayed thereon.
On the 16th day after the date of the virus inoculation, the presence or absence of disease symptoms such as yellow mosaic of new leaves, leaf curling, plant stunting was observed.
(§2) Ascorbic acid 6-palmitate, a nonionic surfactant (polyoxyethylene sorbitan monolaurate) and a spreading agent (Approach BI: manufactured by Kao Corporation) were dissolved in N,N-dimethylformamide. This solution was added to water to obtain an aqueous solution of the anti-plant virus agent comprising 20 mM ascorbic acid 6-palmitate, 0.05% of a nonionic surfactant, 0.1% of a spreading agent, and 1% of N,N-dimethylformamide.
Except that the aqueous solution of the anti-plant virus agent was sprayed onto Arabidopsis thaliana instead of the aforementioned aqueous solution, in the same manner as Comparative Example 6, Turnip mosaic virus was inoculated onto Arabidopsis thaliana, and then the onset of the symptoms was examined.

Turnip mosaic virus [2] = assay: Experiment II: preventive test, spraying before inoculation of Arabidopsis thaliana with Turnip mosaic virus (inoculation solution C); conditions: for columns that showed symptoms / columns that were healthy: Arabidopsis thaliana (Columbia), ten columns inoculated, 20 mM sprayed on the 3rd and 1st day before inoculation, observed on the 16th day
Description: The frozen tobacco leaves infected with Turnip mosaic virus were triturated in 0.1M phosphate-buffer solution at a 10-fold amount (containing 10 mM DIECA). Then, this was diluted 50 times with the same buffer solution. This was defined as virus inoculation solution C.
as §1
On the 3rd day and the 1st day prior to the date of the virus inoculation, an aqueous solution of 0.1% a spreading agent (Approach BI: manufactured by Kao Corporation) was sprayed thereon.
On the 16th day after the date of the virus inoculation, the presence or absence of disease symptoms such as yellow mosaic of new leaves, leaf curling, and plant stunting was observed.
(§3) Each was dissolved in water so as to be 20 mM ascorbic acid and 0.1% of a spreading agent (Approach BI: manufactured by Kao Corporation), thereby obtaining an aqueous solution of ascorbic acid. Except that the aqueous solution of ascorbic acid was sprayed onto Arabidopsis thaliana instead of the aqueous solution of the spreading agent, in the same manner as Comparative Example 3, Turnip mosaic virus was inoculated onto Arabidopsis thaliana, and then the onset of symptoms was examined.

Turnip mosaic virus [3] = assay: Experiment I: spraying before and after inoculation of Arabidopsis thaliana with Turnip mosaic virus (inoculation solution A), onset of symptoms; conditions: for columns that showed symptoms / columns that were healthy: Arabidopsis thaliana (Columbia), seven columns inoculated, 20 mM sprayed on days 3 and 1 before and 1, 3, 5, 8, 10 after inoculation, observed on the 14th day
Description: (§4) Each of the frozen tobacco leaves infected with Turnip mosaic virus and Cucumber mosaic virus (Y strain) was triturated in 0.1M phosphate-buffer solution at a 10-fold amount (containing 10 mM diethyldithiocarbamic acid (DIECA)). These were defined as virus inoculation solutions A and B. These virus inoculation solutions A and B are solutions causing a 100% incidence.
(§5) Three expanded leaves per one column of Arabidopsis thaliana (Columbia) were inoculated with each virus via the aforementioned virus inoculation solutions A and B by the carborundum method.
(§6) On the 3rd day and the 1st day prior to the date of the virus inoculation, and on the 1st day, the 3rd day, the 5th day, the 8th day and the 10th days after the date of the virus inoculation, an aqueous solution of 0.1% of a spreading agent (Approach BI: manufactured by Kao Corporation) was sprayed thereon.
(§7) On the 14th day after the virus inoculation, the presence or absence of disease symptoms such as yellow mosaic of new leaves, leaf curling, and plant stunting was observed. […] It can be seen that the above virus inoculation solutions A and B are strong solutions in view of the fact that the inoculation with the solutions reliably causes the onset of symptoms.
as §3, with “Example 1,” for “Example 3,”, “virus and Cucumber mosaic virus (Y strain) were” for “virus was”
as §2, with “of N,N-dimethylformamide. Except that the aqueous solution of the anti-plant virus agent was sprayed thereon instead of the aqueous solution of ascorbic acid, in the same manner as Comparative Example 2, Turnip mosaic virus and Cucumber mosaic virus (Y strain) were inoculated onto Arabidopsis thaliana, and then the onset of symptoms was examined.” for “of N,N-dimethylformamide.”
Each was added to water so as to be 20 mM ascorbic acid 2-phosphate ester 3-sodium and 0.1% of a spreading agent (Approach BI: manufactured by Kao Corporation), thereby obtaining an aqueous solution of the anti-plant virus agent. Except that the aqueous solution of the anti-plant virus agent was sprayed thereon instead of the aqueous solution of ascorbic acid, in the same manner as Comparative Example 2, Turnip mosaic virus was inoculated onto Arabidopsis thaliana, and then the onset of symptoms was examined.

[4] = test system: Cucumber mosaic virus (Y strain); assay: Experiment I: spraying before and after inoculation of Arabidopsis thaliana with Cucumber mosaic virus (Y strain) (inoculation solution B), onset of symptoms; conditions: Arabidopsis thaliana (Columbia), seven columns inoculated, 20 mM sprayed on days 3 and 1 before and 1, 3, 5, 8, 10 after inoculation, observed on the 14th day
Description: as §4, §5, §6, §7
as §3, with “Example 1,” for “Example 3,”, “virus and Cucumber mosaic virus (Y strain) were” for “virus was”
Ascorbic acid 6-palmitate, a nonionic surfactant (polyoxyethylene sorbitan monolaurate) and a spreading agent (Approach BI: manufactured by Kao Corporation) were dissolved in N,N-dimethylformamide. […]

[5] = test system: Tomato aspermy virus (V strain); assay: Experiment IV: spraying of tomato (cultivar Beiju) inoculated with Tomato aspermy virus (V strain); conditions: four columns inoculated, 2 mM sprayed every day for two weeks from inoculation, observed on the 30th day
Description: The frozen tobacco (Nicotiana benthamiana) infected with Tomato aspermy virus (V strain) was triturated in 0.1M phosphate-buffer solution at a 10-fold amount (containing 10 mM DIECA), and was filtered through a double gauze and the filtrate was defined as virus inoculation solution D. Onto fully expanded leaves of the seedling stage of tomato (cultivar: Beiju) after a period of two weeks from seeding, the virus inoculation solution D was inoculated by physical application via the carborundum method.
After the virus inoculation, as a result of examination of disease symptoms over time, mosaic or leaf curling could be recognized after the 5th day, and lethal necrosis symptoms were shown after the period of two weeks, and all of the five columns inoculated with Tomato aspermy virus (V strain) withered.
200 mM of ascorbic acid 6-palmitate was dissolved in N,N-dimethylformamide. This solution was diluted 100 times with distilled water to obtain an aqueous solution of the anti-plant virus agent comprising 2 mM ascorbic acid 6-palmitate and 1% of N,N-dimethylformamide. In the same manner as Comparative Example 7, the tomato was inoculated with tomato aspermy virus (V strain). During the two weeks from the date of virus inoculation, the aforementioned aqueous solution was sprayed thereon every day, and disease symptoms were examined over time. […]

Compound	columns that showed symptoms (Turnip mosaic virus [1])	columns that were healthy (Turnip mosaic virus [1])	columns that showed symptoms (Turnip mosaic virus [2])	columns that were healthy (Turnip mosaic virus [2])	columns that showed symptoms (Turnip mosaic virus [3])	other results
CCCCCCCCCCCCCCCC(=O)OC[C@H](O)[C@H]1OC(=O)C(OC(=O)CCCCCCCCCCCCCCC)=C1O [ascorbic acid 2,6-dipalmitate]	one	nine				
O=C1O[C@H]([C@@H](O)CO)C(O)=C1O[C@H]1O[C@H](CO)[C@@H](O)[C@H](O)[C@H]1O [ascorbic acid 2-glucoside]			one	nine		
O=C1O[C@H]([C@@H](O)CO)C([O-])=C1OP(=O)([O-])[O-].[Na+].[Na+].[Na+] [ascorbic acid 2-phosphate ester 3-sodium]				ten	five	columns that were healthy (Turnip mosaic virus [3]): two
CCCCCCCCCCCCCCCC(=O)OC[C@H](O)[C@H]1OC(=O)C(O)=C1O [ascorbic acid 6-palmitate]	one	nine			five	columns that were healthy (Turnip mosaic virus [3]): two; columns that showed symptoms [4]: five; columns that were healthy [4]: two; columns that were healthy [5]: two; columns that withered [5]: two
CCCCCCCCCCCCCCCCCC(=O)OC[C@H](O)[C@H]1OC(=O)C(O)=C1O [ascorbic acid 6-stearate]	one	nine				
O=C1O[C@H]([C@@H](O)CO)C(O)=C1O [ascorbic acid, reference compound]			two	eight	seven	anti-plant viral activity (conclusion in words) (Turnip mosaic virus [3]; Experiment I, 20 mM spray): does not have any anti-plant viral activity; columns that showed symptoms [4]: seven; anti-plant viral activity / preventive effect (conclusion in words) (Turnip mosaic virus [2]; Experiment II, 20 mM sprayed before inoculation): do not have any anti-plant viral activity
CCCCCCCCC(CCCCCC)C(=O)OCC(OC(=O)C(CCCCCC)CCCCCCCC)C1OC(=O)C(OC(=O)C(CCCCCC)CCCCCCCC)=C1OC(=O)C(CCCCCC)CCCCCCCC (stereo not drawn) [ascorbyl 2,3,5,6-tetrahexyldecanoate]	one	nine				
O=C1O[C@H]([C@@H](O)CO)C([O-])=C1O.[Na+] [sodium ascorbate]			three	seven		
